Results taken from patent US9910031B2, “Compositions and methods for modulating c-Rel-dependent cytokine production” (Synta Pharmaceuticals Corporation, priority 2003, dated 2018).

What was measured:
Assay type in all cases: cell-based, human
IκBα = test: Inducible degradation of IκBα, Western blot and FACS analysis; conditions: THP-1 and RAW267.4 cells, IFN-γ/LPS or IFN-γ/SAC, 500 nM, 30 min and 2 hrs
Procedure: IκB degradation is one of the steps in the signaling pathway of NFκB dependent genes. The activity of Compound 2 in inducible degradation of IκBα □ and IκBβ was investigated in THP-1 cells using Western blot and FACS analysis. […] Similar results were observed from the Compound 2 pre-treatment samples in which Compound 2 was added […] before stimulation.

c-Rel = test: Western blot of nuclear c-Rel in THP-1 cells
From the text: (§1) In order to understand this changes, the subcellular localization of NF-κB proteins was investigated using western blot analysis.
(§2) Of the transcription factors that have been analyzed, two factors, ICSBP and c-Rel, seem to be affected by Compound 1/Compound 2 treatment. ICSBP binds indirectly to the Ets-2 site. The primary NFκB trans-activator for IL-12 is the c-Rel/p50 heterodimer. Other dimers (p65/p50 and p50/p50) either lack activity or have inhibitory functions. Thus, c-Rel plays a role in IL-12 transcription as a result of both activation through NFκB and its interaction with ICSBP. […] The membranes were blocked with 5% milk in TBST buffer and then incubated with anti-c-Rel, anti-p65, anti-p50, anti-ICSBP or anti-PU-1 antibody (all the antibodies were purchased from Santa Cruz) at a dilution of 1:500 for 1 h at room temperature or overnight at 4° C. The membranes were washed and incubated with Horseradish Peroxidase-conjugated anti-rabbit IgG or anti-mouse IgG (Amersham, England) at a dilution of 1:2000 at room temperature for 1 h.
THP-1 cells were suspended in 20 volumes of buffer A containing 10 mM KCl, 10 mM HEPES (pH 7.9), 1 mM MgCl2, 1 mM dithiothreitol (DTT), 0.1% Nonidet p40 (NP-40), and 0.5 mM phenylmethylsulfonyl fluoride (PMSF) and homogenized and centrifuged at 10,000 rpm at 4 C for 5 min. […]

p50 = test: Western blot of nuclear p50 in THP-1 cells
From the text: as §1, §2
Compound 2 impairs nuclear translocation of c-Rel and p50. We examined the nuclear translocation kinetics of NF-kB family members in LPS stimulated cells treated with Compound 2. THP1 cells were stimulated with LPS in either the presence or absence of 100 nM Compound 2, and the distribution of the NF-κB Rel family members are determined by immunoblotting nuclear (n.p.) extracts collected at 5 min, 15 min, 30 min, 1 h, 3 h and 6 h post-treatment. In response to LPS stimulation, p50 translocated into the nucleus as early as 5 minutes post-stimulation and accumulates as time goes on (FIG. 7, immunoblots and FIG. 8 densitometry). […] The experiment examining p65 nuclear translocation is shown in FIG. 9 (immunoblots) and FIG. 10 (densitometry). In LPS stimulated cells, p65 translocated into the nucleus as early as 5 minutes post-stimulation and accumulated to maximum levels at 15-30 minutes post-stimulation. Treatment of LPS-stimulated cells with Compound 2 had no effect on the kinetics of p65 nuclear entry.
THP-1 cells were suspended in 20 volumes of buffer A containing 10 mM KCl, 10 mM HEPES (pH 7.9), 1 mM MgCl2, 1 mM dithiothreitol (DTT), 0.1% Nonidet p40 (NP-40), and 0.5 mM phenylmethylsulfonyl fluoride (PMSF) and homogenized and centrifuged at 10,000 rpm at 4 C for 5 min. Nuclear pellets were then suspended in buffer C containing 400 mM NaCl, 20 mM HEPES 9 pH 7.9), 15 mM MgCl2, 0.2 mM EDTA, 1 mM DTT, 25% glycerol, 1 mM PMSF, and 10 ug of leupeptin, 20 ug of pepstatin, and 10 ug/ml antipain, incubated for 30 min at 4 C, and centrifuged at 14,000 rpm for 20 min. The supernatants were dialyzed against buffer D containing 100 mM NaCl, 20 mM HEPES (pH 7.9), 20% glycerol, 1 mM PMSF, and 1 mM DTT. […]

Rel-B = test: Immunoblot of nuclear Rel-B in THP1 cells; conditions: THP1, IFNg+LPS, 100 nM, 6 h
Procedure: Rel B and p52 are two members of Rel family, which are preferentially complexed with each other. Like p50 and p65, p52 is found in virtually all cell types, whereas c-Rel and Rel B have only been detected in lymphoid tissues. To determine the effect of Compound 2 on p52 and Rel-B nuclear translocation, THP1 cells were stimulated with IFNg+LPS in either the presence or absence of 100 nM Compound 2, and the distribution of p52 and Rel-B was determined by immunoblotting of nuclear at 6 h post-treatment.
THP-1 cells were suspended in 20 volumes of buffer A containing 10 mM KCl, 10 mM HEPES (pH 7.9), 1 mM MgCl2, 1 mM dithiothreitol (DTT), 0.1% Nonidet p40 (NP-40), and 0.5 mM phenylmethylsulfonyl fluoride (PMSF) and homogenized and centrifuged at 10,000 rpm at 4 C for 5 min. Nuclear pellets were then suspended in buffer C containing 400 mM NaCl, 20 mM HEPES 9 pH 7.9), 15 mM MgCl2, 0.2 mM EDTA, 1 mM DTT, 25% glycerol, 1 mM PMSF, and 10 ug of leupeptin, 20 ug of pepstatin, and 10 ug/ml antipain, incubated for 30 min at 4 C, and centrifuged at 14,000 rpm for 20 min. The supernatants were dialyzed against buffer D containing 100 mM NaCl, 20 mM HEPES (pH 7.9), 20% glycerol, 1 mM PMSF, and 1 mM DTT.
The 10% SDS Polyacrylamide gels (Invitrogen) were transferred to Pure Nitrocellulose membrane (BioRed, Hercules, Calif.). […]

PU-1 = test: Western blot of PU-1 in THP-1 nuclear extracts (Ets-2 DNA element beads)
From the text: as §2
The transcription factor ICSBP binds to the Ets-2 element indirectly through binding to PU-1. Nuclear extracts were bound to Ets-2 DNA element beads, the beads isolated to separate bound from free protein, and the proteins analyzed on Western blots using antibodies to either ICSBP or PU-1. […] Eluted materials were separated by 10% SDS-PAGE and detected by immunoblot analysis using anti-ICSBP or anti-PU-1 antibody.

[1] = 500 nM, 3 hr, relative to untreated cells
[2] = THP1, IFN-γ plus LPS or IFN-γ plus SAC

Row | SMILES | amount of IκBα in the cytoplasm, treated vs untreated (IκBα) | amount of c-Rel protein in nuclear (c-Rel; [1]) | nuclear c-Rel level (FIG. 4) (c-Rel; [2]) | amount of p50 protein in nuclear (p50; [1]) | nuclear p50 levels (FIG. 4) (p50; [2]) | kinetics of p50 nuclear entry (p50; THP1, LPS, 100 nM, 5 minutes to 1 hr post-stimulation) | nuclear p50 protein levels (p50; THP1, LPS, 100 nM, 3 hours) | nuclear Rel-B (FIG. 11) (Rel-B) | levels of PU-1 (FIG. 6) (PU-1)
1 | Cc1cccc(C=NNc2cc(N3CCOCC3)nc(OCCc3ccccn3)n2)c1 [Compound 2, N-(3-methyl-benzylidene)-N′-[6-morpholin-4-yl-2-(2-pyridin-2-yl-ethoxy)-pyrimidin-4-yl]-hydrazine] | no significant difference | decreased | significantly reduced | decreased | decreased slightly | no effect | small decrease | slightly increased | 
2 | C(=NNc1nc(OCCc2ccccn2)nc(N2CCOCC2)n1)c1c[nH]c2ccccc12 [Compound 1, N-(1H-indol-3-ylmethylene)-N′-[4-morpholin-4-yl-6-(2-pyridin-2-yl-ethoxy)-[1,3,5]triazin-2-yl]-hydrazine] |  |  |  |  |  |  |  |  | unaffected
